Literature values in patent US20130136752A1, “Ophthalmic Formulations” (OXIGENE, INC., priority 2010, published 2013).

Assays:
[1] = test system: choroidal neovascularization (CNV); conditions: rho/VEGF mice, P7 to P21
[2] = test system: vessels with anomalous structure

SMILES: COc1ccc(/C=C\c2cc(OC)c(OC)c(OC)c2)cc1OP(=O)(O)O [CA4P, combretastatin A4 phosphate]
- neovascular lesions at P21 ([1]; 2.2 mg/kg daily IP): numerous neovascular lesions
- number of neovascular lesions and total area of neovascularization per retina versus vehicle ([1]; 4.0 mg/kg daily IP): significant reduction
- systemic dose levels disrupting aberrant vessels ([2]; aberrant vessels induced by overexpression of VEGF or by exposure to elevated oxygen): 3 to 4 mg/kg
- systemic dose level required for normal immature vessels ([2]; normal immature vessels induced by burn injury): 75 mg/kg
